From patent publication US10501455B2, “Inhibitors of leukotriene A4 hydrolase” (Celtaxsys, Inc., priority 2013, dated 2019)

Columns and labels:
LTA4-h [1] = molecular target: T1, LTA4-h (Homo sapiens, UniProt P09960); assay: Peptidase (aminopeptidase) assay; type: biochemical; conditions: for inhibition at 3 µM: read-out: Peptidase % inhibition
T1 sequence (P09960 1-611): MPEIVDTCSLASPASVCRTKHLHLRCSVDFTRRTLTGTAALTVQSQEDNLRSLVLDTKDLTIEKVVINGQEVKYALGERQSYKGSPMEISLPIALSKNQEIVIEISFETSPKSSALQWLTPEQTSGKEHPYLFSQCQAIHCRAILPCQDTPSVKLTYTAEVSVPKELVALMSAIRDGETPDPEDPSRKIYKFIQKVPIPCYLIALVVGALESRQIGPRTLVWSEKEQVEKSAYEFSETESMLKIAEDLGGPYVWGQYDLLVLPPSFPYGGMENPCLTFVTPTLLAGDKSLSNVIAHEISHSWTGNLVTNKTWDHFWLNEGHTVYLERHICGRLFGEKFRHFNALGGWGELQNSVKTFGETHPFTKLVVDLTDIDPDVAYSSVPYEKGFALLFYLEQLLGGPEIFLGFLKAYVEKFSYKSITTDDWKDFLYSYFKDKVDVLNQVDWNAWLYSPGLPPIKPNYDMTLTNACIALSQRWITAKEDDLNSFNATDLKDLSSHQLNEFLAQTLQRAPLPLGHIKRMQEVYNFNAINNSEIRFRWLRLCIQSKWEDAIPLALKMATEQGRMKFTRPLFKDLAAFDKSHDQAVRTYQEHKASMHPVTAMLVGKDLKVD
Experimental: Since LTA4-h hydrolase is grouped with the M1 family of zinc metalloproteases (see, Rudberg, P. C. et al., J. Biol. […] The whole blood and aminopeptidase assays were performed as described in Penning et al., J. Med.

LTA4-h [2] = molecular target: T1, LTA4-h; assay: Hydrolase assay (hydrolase-homogeneous time resolved fluorescence, LTB4 produced); type: biochemical
Text: The compounds of the invention can be tested for their ability to inhibit LTA4-h by various known assays and by assays described herein. For example, the compounds can be tested for their ability to inhibit LTA4-h activity by assaying the compounds in the hydrolase-homogeneous time resolved fluoroescence assay. This assay, which is a two-step assay, measures the hydrolysis of […] to LTB4 by analyzing the amount of LTB4 produced. The first step involves the enzymatic conversion of […] to LTB4 and the second step involves the quantification of the […] with a homogeneous time resolved fluoroescence assay.
(§1) The whole blood and aminopeptidase assays were performed as described in Penning et al., J. Med. Chem. 2000, 43, 721-735, and Rudberg et al., J. Biol. Chem. Vol. 279, No. 26, Issue of June 25, pp. 27376-27382, 2004, the contents of each of which are expressly incorporated by reference herein. The hydrolase assay was performed as described in U.S. Pat. No. 7,737,145, the contents of which are expressly incorporated herein.

LTA4-h hydrolase = molecular target: T2, LTA4-h hydrolase (Homo sapiens, UniProt P09960); assay: Whole blood assay (WBA); type: cell-based
T2 construct: endogenous in cells; host or cells: whole blood
T2 sequence (P09960 1-611): T1 sequence (P09960 1-611)
Experimental: as §1, with “Compounds of the invention can also be tested for their ability as inhibitors of LTA4-h hydrolase in the whole blood assay using human, mouse, rat or dog whole blood (see Penning, T. D. et al., J. Med. Chem. (2000), 43(4): 721-735 for a description of a human whole blood assay and a mouse whole blood assay, the contents of which are expressly incorporated herein). […] The whole” for “The whole”

| SMILES | IC50 (LTA4-h [1]) [nM] | IC50 (LTA4-h [2]) [nM] | IC50 (LTA4-h hydrolase) [nM] | further results |
| --- | --- | --- | --- | --- |
| Clc1ccc(Oc2ccc(NCC3CCNC3)cc2)cc1 (stereo not shown) [Compound 1] | 45 | 26 | 510 | – |
| Clc1ccc(Oc2ccc(NCC3CCCCN3)cc2)cc1 (stereo not shown) [Compound 2] | 72 | 190 | 880 | – |
| O=C(O)c1ccc(CN2CCC(CN(Cc3ccc(C(=O)O)cc3)c3ccc(Oc4ccc(Cl)cc4)cc3)C2)cc1 (stereo not shown) [Compound 3] | 88 | 300 | > 3000 | – |
| Clc1ccc(Oc2ccc(NCC3CNC3)cc2)cc1 [Compound 4] | 1.7 | 7.9 | 90 | – |
| Clc1ccc(Oc2ccc(NC3CNC3)cc2)cc1 [Compound 5] | 31 | 300 | 920 | – |
| Clc1ccc(Oc2ccc(NC3CC4CCC(C3)N4)cc2)cc1 (stereo not shown) [Compound 6] | 160 | 360 | 1900 | – |
| O=C(O)c1ccc(CN2CC(Nc3ccc(Oc4ccc(Cl)cc4)cc3)C2)cc1 [Compound 7] | 4 | 5 | 57 | – |
| COC(=O)c1ccc(CN(CC2CCN(C(=O)OC(C)(C)C)C2)c2ccc(Oc3ccc(Cl)cc3)cc2)cc1 (stereo not shown) [Compound 9] | – | – | – | inhibition at 3 µM (LTA4-h [1]; at 3 uM): 56% |
| COC(=O)c1ccc(CN(CC2CCNC2)c2ccc(Oc3ccc(Cl)cc3)cc2)cc1 (stereo not shown) [Compound 10] | 13 | 22 | 260 | – |
| O=C(O)c1ccc(CN(CC2CCNC2)c2ccc(Oc3ccc(Cl)cc3)cc2)cc1 (stereo not shown) [Compound 11] | 140 | 70 | 670 | – |
| COC(=O)c1ccc(CN(CC2CCN(C)C2)c2ccc(Oc3ccc(Cl)cc3)cc2)cc1 (stereo not shown) [Compound 12] | 150 | 70 | 240 | – |
| COC(=O)c1ccc(CN(CC2CCN(Cc3ccc(F)cc3)C2)c2ccc(Oc3ccc(Cl)cc3)cc2)cc1 (stereo not shown) [Compound 13] | 100 | – | 2770 | – |
| COC(=O)c1ccc(CN(CC2CCN(Cc3ccccc3)C2)c2ccc(Oc3ccc(Cl)cc3)cc2)cc1 (stereo not shown) [Compound 14] | 200 | – | – | – |
| CN1CCC(CN(Cc2ccc(C(=O)O)cc2)c2ccc(Oc3ccc(Cl)cc3)cc2)C1 (stereo not shown) [Compound 15] | 290 | 470 | 560 | – |
| O=C(O)c1ccc(CN(CC2CCN(Cc3ccc(F)cc3)C2)c2ccc(Oc3ccc(Cl)cc3)cc2)cc1 (stereo not shown) [Compound 16] | 1600 | 2200 | – | – |
| O=C(O)c1ccc(CN(CC2CCN(Cc3ccccc3)C2)c2ccc(Oc3ccc(Cl)cc3)cc2)cc1 (stereo not shown) [Compound 17] | 1500 | – | – | – |
| CC(C)(C)OC(=O)N1CCC(CN(Cc2ccccc2)c2ccc(Oc3ccc(Cl)cc3)cc2)C1 (stereo not shown) [Compound 18] | – | – | – | inhibition at 3 µM (LTA4-h [1]; at 3 uM): 0% |
| CC(C)(C)OC(=O)N1CCC(CN(Cc2ccc(F)cc2)c2ccc(Oc3ccc(Cl)cc3)cc2)C1 (stereo not shown) [Compound 19] | – | – | – | inhibition at 3 µM (LTA4-h [1]; at 3 uM): 47% |
| CN1CCC(CN(Cc2ccc(F)cc2)c2ccc(Oc3ccc(Cl)cc3)cc2)C1 (stereo not shown) [Compound 20] | 165 | 140 | 950 | – |
| COC(=O)c1ccc(CN2CCC(CN(Cc3ccc(F)cc3)c3ccc(Oc4ccc(Cl)cc4)cc3)C2)cc1 (stereo not shown) [Compound 22] | – | – | – | inhibition at 3 µM (LTA4-h [1]; at 3 uM): 59% |
| COC(=O)c1ccc(CN2CCC(CN(Cc3ccccc3)c3ccc(Oc4ccc(Cl)cc4)cc3)C2)cc1 (stereo not shown) [Compound 23] | – | – | – | inhibition at 3 µM (LTA4-h [1]; at 3 uM): 40% |
| O=C(O)c1ccc(CN2CCC(CN(Cc3ccc(F)cc3)c3ccc(Oc4ccc(Cl)cc4)cc3)C2)cc1 (stereo not shown) [Compound 24] | 530 | 870 | – | – |
| O=C(O)c1ccc(CN2CCC(CN(Cc3ccccc3)c3ccc(Oc4ccc(Cl)cc4)cc3)C2)cc1 (stereo not shown) [Compound 25] | 370 | 1550 | 520 | – |
| COC(=O)c1ccc(CN(CC2CN(C(=O)OC(C)(C)C)C2)c2ccc(Oc3ccc(Cl)cc3)cc2)cc1 [Compound 26] | – | – | – | inhibition at 3 µM (LTA4-h [1]; at 3 uM): 42% |
| CC(C)(C)OC(=O)CN(CC1CCN(C(=O)OC(C)(C)C)C1)c1ccc(Oc2ccc(Cl)cc2)cc1 (stereo not shown) [Compound 27] | – | – | – | inhibition at 3 µM (LTA4-h [1]; at 3 uM): 7% |
| COC(=O)c1ccc(CN(CC2CNC2)c2ccc(Oc3ccc(Cl)cc3)cc2)cc1 [Compound 28] | 46 | 170 | 800 | – |
| COC(=O)c1cccc(CN(CC2CCN(C(=O)OC(C)(C)C)C2)c2ccc(Oc3ccc(Cl)cc3)cc2)c1 (stereo not shown) [Compound 33] | – | – | – | inhibition at 3 µM (LTA4-h [1]; at 3 uM): 22% |
| CC(C)(C)OC(=O)N1CCC(CN(Cc2ccc([N+](=O)[O-])cc2)c2ccc(Oc3ccc(Cl)cc3)cc2)C1 (stereo not shown) [Compound 39] | – | – | – | inhibition at 3 µM (LTA4-h [1]): 19% |
| CC(C)(C)OC(=O)N1CCC[C@H]1CN(Cc1ccc(S(N)(=O)=O)cc1)c1ccc(Oc2ccc(Cl)cc2)cc1 [Compound 43] | – | – | – | inhibition at 1 µM (LTA4-h [1]; at 1 uM): 0% |

Further lines, with some results ahead:

| IC50 (LTA4-h [1]) [nM] | IC50 (LTA4-h [2]) [nM] | IC50 (LTA4-h hydrolase) [nM] | SMILES | further results |
| --- | --- | --- | --- | --- |
| 22 | 320 | 920 | O=C(O)CN(CC1CCNC1)c1ccc(Oc2ccc(Cl)cc2)cc1 (stereo not shown) [Compound 29] | – |
| 240 | 1000 | 1600 | O=C(O)c1ccc(CN(CC2CNC2)c2ccc(Oc3ccc(Cl)cc3)cc2)cc1 [Compound 30] | – |
| 76 | – | – | COC(=O)c1cccc(CN(CC2CN(C(=O)OC(C)(C)C)C2)c2ccc(Oc3ccc(Cl)cc3)cc2)c1 [Compound 31] | inhibition at 3 µM (LTA4-h [2]; at 3 uM): > 5% |
| 12 | 1300 | 2800 | CC(C)(C)OC(=O)N1CCC(CN(Cc2ccc(S(N)(=O)=O)cc2)c2ccc(Oc3ccc(Cl)cc3)cc2)C1 (stereo not shown) [Compound 32] | – |
| 62 | – | – | COC(=O)c1cccc(CN(CC2CCNC2)c2ccc(Oc3ccc(Cl)cc3)cc2)c1 (stereo not shown) [Compound 34] | – |
| 33 | – | – | COC(=O)c1cccc(CN(CC2CNC2)c2ccc(Oc3ccc(Cl)cc3)cc2)c1 [Compound 35] | – |
| 60 | 12 | – | O=C(O)c1cccc(CN(CC2CCNC2)c2ccc(Oc3ccc(Cl)cc3)cc2)c1 (stereo not shown) [Compound 36] | – |
| 35 | 62 | – | O=C(O)c1cccc(CN(CC2CNC2)c2ccc(Oc3ccc(Cl)cc3)cc2)c1 [Compound 37] | – |
| 26 | 12 | – | NS(=O)(=O)c1ccc(CN(CC2CCNC2)c2ccc(Oc3ccc(Cl)cc3)cc2)cc1 (stereo not shown) [Compound 38] | – |
| 125 | – | – | COC(=O)c1coc(CN(CC2CCNC2)c2ccc(Oc3ccc(Cl)cc3)cc2)n1 (stereo not shown) [Compound 40] | – |
| 70 | – | – | Clc1ccc(Oc2ccc(NC[C@@H]3CCCN3)cc2)cc1 [Compound 42] | – |
| 110 | – | – | NS(=O)(=O)c1ccc(CN(C[C@@H]2CCCN2)c2ccc(Oc3ccc(Cl)cc3)cc2)cc1 [Compound 44] | – |
